Data as given in patent publication US5723458A, “Hypolipidaemic compounds” (Glaxo Wellcome Inc., priority 1993, dated 1998).

Tested on: rat distal ileal brush border membrane vesicles (active, sodium-dependent 3H taurocholate uptake)
Experiment: In vitro inhibition of bile acid uptake
Format: biochemical
Settings: 30 seconds at 24° C., versus control active uptake
Experimental: In vitro inhibition of bile acid uptake
Freshly prepared rat distal ileal brush border membrane vesicles (about […] vesicle protein) were incubated for 30 seconds at 24° C. in an incubation mixture comprising […] ^3 H taurocholate, 100 mM NaCl (or KCl) and 80 mM mannitol in 20 mM Hepes Tris pH 7.4. Each test compound was dissolved in ethanol (or water) and then diluted with incubation mixture to an ethanol concentration of not more than 1% v/v. The incubation was terminated by rapid dilution and filtration and the filter washed with an ice-cold isotonic sodium-free buffer.
The uptake of ^3 H taurocholate was measured by the radioactivity remaining on the filter and converted to pmoles/mg vesicle protein. The active, ie sodium-dependent, uptake was obtained by subtracting the passive uptake measured in 100 mM KCl from the total uptake measured in 100 mM NaCl. The active uptake for each test compound was compared with a control active uptake and the results expressed as % inhibition of bile acid uptake.
Data is given below for % inhibition of bile acid uptake at various concentrations of compounds of the invention.

Structure (SMILES)	% inhibition of bile acid uptake (10 μM test compound)	% inhibition of bile acid uptake (3 μM test compound)	% inhibition of bile acid uptake (0.3 μM test compound)	% inhibition of bile acid uptake (1 μM test compound)
CCC1NC(c2ccc(O)cc2)c2ccccc2S(=O)(=O)C1C[C@@H](O)CC (mixture of isomers) [Example 24, (+-)-Trans-3-Ethyl-2,3,4,5-tetrahydro-2-(2(S)-2-hydroxybutyl)-5-(4-hydroxyphenyl)-1,4-benzothiazepine 1,1-dioxide]	23%	–	–	–
CC[C@@H](O)C[C@@]1(CC)CS(=O)(=O)c2ccccc2[C@H](c2ccccc2)N1 (racemic) [Example 1, (+-)-trans-3-ethyl-2,3,4,5-tetrahydro-3-((2R)-2hydroxybutyl)-5-phenyl-1,4-benzothiazepine 1,1-dioxide]	69%	36%	–	–
CC[C@@H](O)C[C@@]1(CC)CS(=O)(=O)c2cc(OC)ccc2[C@H](c2ccccc2)N1 (racemic) [Example 2]	83%	60%	22%	44%
CC[C@]1(C[C@H](O)CC(F)(F)F)CS(=O)(=O)c2ccccc2[C@H](c2ccccc2)N1 (racemic) [Example 11, (+-)-trans-1-(3-ethyl-2,3,4,5-tetrahydro-5-phenyl-1,4-benzothiazepin-3-yl)-4,4,4-trifluoro-(2S)-2-butanol-S,S-dioxide]	85%	63%	13%	31%
CC[C@]1(C[C@H](O)CC(F)(F)F)CS(=O)(=O)c2ccc(OC)cc2[C@H](c2ccccc2)N1 (racemic) [Example 12, (+-)-trans-1-(3-ethyl-2,3,4,5-tetrahydro-7-methoxy-5-phenyl-1,4-benzothiazepin-3-yl)-4,4,4-trifluoro-(2S)-2-butanol-S,S-dioxide]	95%	86%	47%	72%
